# pIC50: −log10 of the molar value.
# Target: recombinant human deoxyuridine nucleotidohydrolase (dUTPase) (Homo sapiens (Human), UniProt P33316)
# Test: fluorescence-based dUTPase inhibition assay
# Assay type: biochemical
# Conditions: for % relative inhibition vs. positive control: mean over three concentrations, typically 100, 50 and 25 μmol/L, compared to in-run positive control
# Excerpt: Recombinant human deoxyuridine nucleotidohydrolase (dUTPase) is expressed and purified as described in Ladner R D, Carr S A, Huddleston M J, McNulty D E, Caradonna S J. J Biol Chem. 1996 Mar. 29; 271(13):7752-7. All drugs stocks are aliquoted and diluted as appropriate prior to use. The oligonucelotide primer, templates and fluorophore- and quencher-labeled detection probes are synthesized by Integrated DNA Technologies (Coralville, Iowa), subjected to polyacrylamide gel electrophoresis purification and reconstituted in Omnipur sterile nuclease-free water (EMD Chemicals USA, Gibbstown N.J.) at a stock concentration of 100 μmol/L. The two non-emissive (dark) quenching molecules incorporated into the detection probes include the Iowa black fluorescein quencher (IBFQ; absorption max 531 nm) and ZEN (non-abbreviation; absorption max 532 nm). The fluorescent label utilized is 6-FAM (5′-carboxyfluorescein; excitation max.=494 nm, emission max.=520 nm). Probes are further diluted to a working stock of 10 μmol/L and aliquoted to avoid repeated freeze/thaw cycles. AmpliTaq Gold DNA Polymerase, GeneAmp 10×PCR Buffer 2, MgCl2 and MicroAmp Optical 96-well Reaction Plates are purchased from Applied Biosystems (Carlsbad, Calif.). dNTPs are purchased individually at stock concentrations of 100 mmol/L from New England Biolabs at HPLC-certified >99% purity (Ipswich, Mass.).
# Reaction mixtures contained primer, probe and template at an equimolar final concentration of 0.4 μmol/L. Magnesium chloride (MgCl2) is included at a final concentration of 2 mmol/L. Non-limiting dNTPs are included in the reaction mix in excess at a final concentration of 100 μmol/L (dUTP/dTTP is excluded). AmpliTaq Gold DNA polymerase is added at 0.875 U/reaction, 2.5 μl of 10×PCR buffer 2 added and nuclease-free ddH2O added to a final reaction volume of 25 μl. For dUTP inhibition analysis, the volume of ddH2O is further modified to accommodate an additional 1 μl of dUTPase (10 ng/μl) and 1 μl of inhibitor or DMSO control. Thermal profiling and fluorescence detection is performed using a customized thermal program on board a Roche Lightcycler LC480 Instrument II. For analysis of dNTPs, the thermal profile consisted of an 8 min 37° C. step followed by a 10 min 95° C. step to ‘hot-start’ the Taq polymerase and a primer extension time of up to 30 min at 60° C. Raw fluorescence spectra for 6-FAM is measured at specified time intervals to follow assay progression on board a Roche LightCycler 480 Software Version 1.5 and exported and analyzed in Microsoft Excel (Microsoft, Redmond Wash.) and Prism (GraphPad Software, La Jolla Calif.). Fluorescence values for blank reactions (limiting dNTP omitted) are subtracted to give normalized fluorescence units (NFU) to account for background fluorescence.
# Test compounds are screened in a fluorescence-based assay. The assay employs a DNA polymerase-based approach utilizing an oligonucleotide template with 3 distinct regions: a 3′ primer binding region, a mid-template dUTP/thymidine triphosphate (TTP) detection region and a 5′ 6-[…] (FAM)-labeled probe binding region that incorporates a black hole quenching moiety. During the reaction, the probe and primer hybridize to the oligonucleotide template to form the template:primer:probe complex. When Taq polymerase binds to the primer in the TPP complex and dUTP is present, successful extension of the nascent strand occurs and the inherent 5′ to 3′ exonuclease activity of Taq polymerase cleaves and displaces the 6-FAM-labeled probe in a 5′ to 3′ direction, releasing the 6-FAM fluorophore from its proximity to the three quenchers. This displacement effectively disrupts the Förster resonance energy transfer (FRET) and the resulting fluorescence detected upon excitation is directly proportional to the amount of the dUTP available in the assay for incorporation. […]
# Chain of recombinant human deoxyuridine nucleotidohydrolase (dUTPase) (P33316 other isoform, or with tags, fused parts or gaps): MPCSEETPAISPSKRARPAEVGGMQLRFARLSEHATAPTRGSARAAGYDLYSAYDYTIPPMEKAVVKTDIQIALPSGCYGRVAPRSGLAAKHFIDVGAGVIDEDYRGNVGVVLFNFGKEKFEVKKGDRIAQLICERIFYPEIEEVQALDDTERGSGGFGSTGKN
compound,measurement,value
"CC(Oc1cc([C@@H](C)NS(=O)(=O)CCCCCN2CC(=O)NC2=O)ccc1F)C1CC1 (stereo partly drawn) [Example 90, N—((1R)-1-(3-(1-cyclopropylethoxy)-4-fluorophenyl)ethyl)-5-(2,4-dioxoimidazolidin-1-yl)pentane-1-sulfonamide]",pIC50,5.70
same,% relative inhibition vs. positive control,37%
"C[C@@H](NS(=O)(=O)CCCCCN1CC(=O)NC1=O)c1ccc(F)c(OC[C@@H]2CCCN2C)c1 [Example 91, 5-(2,4-dioxoimidazolidin-1-yl)-N—((R)-1-(4-fluoro-3-(((S)-1-methylpyrrolidin-2-yl)methoxy)phenyl)ethyl)pentane-1-sulfonamide]",pIC50,3.82
same,% relative inhibition vs. positive control,1%
"C[C@H](c1ccc(F)c(OCC2CC2)c1)N(C)S(=O)(=O)CCCCCN1CC(=O)NC1=O [Example 92, (R)—N-(1-(3-(cyclopropylmethoxy)-4-fluorophenyl)ethyl)-5-(2,4-dioxoimidazolidin-1-yl)-N-methylpentane-1-sulfonamide]",pIC50,5.20
same,% relative inhibition vs. positive control,12%
C[C@@H](NS(=O)(=O)CCCCCN1CC(=O)N(C(=O)OC(C)(C)C)C1=O)c1ccc(F)c(OCC2CC2)c1 [Example 93],pIC50,5.43
same,% relative inhibition vs. positive control,20%
"C[C@@H](NS(=O)(=O)CCCCCN1CC(=O)NC1=O)c1ccc(F)c(OS(=O)(=O)C(F)(F)F)c1 [Example 94, (R)-5-(1-((5-(2,4-dioxoimidazolidin-1-yl)pentyl)sulfonamido)ethyl)-2-fluorophenyl trifluoromethanesulfonate]",pIC50,3.82
same,% relative inhibition vs. positive control,1%
"C[C@@H](NS(=O)(=O)CCCCCN1CC(=O)N(COCC[Si](C)(C)C)C1=O)c1ccc(F)c(OCC2CC2)c1 [Example 95, (R)—N-(1-(3-(cyclopropylmethoxy)-4-fluorophenyl)ethyl)-5-(2,4-dioxo-3-((2-(trimethylsilyl)ethoxy)methyl)-imidazolidin-1-yl)pentane-1-sulfonamide]",pIC50,< 4.60
same,% relative inhibition vs. positive control,0%
"C[C@@H](NS(=O)(=O)CCCCCN1CC(=O)NC1=O)c1ccc(F)c(NCC2CC2)c1 [Example 96, (R)—N-(1-(3-((cyclopropylmethyl)amino)-4-fluorophenyl)ethyl)-5-(2,4-dioxoimidazolidin-1-yl)pentane-1-sulfonamide]",pIC50,5.40
same,% relative inhibition vs. positive control,19%
"[2H]C([2H])(Oc1cc([C@@H](C)NS(=O)(=O)CCCCCN2CC(=O)NC2=O)ccc1F)C1CC1 [Example 97, (R)—N-(1-(3-(cyclopropylmethoxy-d2)-4-fluorophenyl)ethyl)-5-(2,4-dioxoimidazolidin-1-yl)pentane-1-sulfonamide]",% relative inhibition vs. positive control,182%
"C[C@@H](NS(=O)(=O)CCCCCN1CC(=O)NC1=O)c1ccc(F)c(OC2CCOCC2)c1 [Example 98, (R)-5-(2,4-dioxoimidazolidin-1-yl)-N-(1-(4-fluoro-3-((tetrahydro-2H-pyran-4-yl)oxy)phenyl)ethyl)pentane-1-sulfonamide]",pIC50,5.52
same,% relative inhibition vs. positive control,25%
"C[C@@H](NS(=O)(=O)CCCCCN1CC(=O)NC1=O)c1ccc(F)c(Oc2ccccc2)c1 [Example 99, (R)-5-(2,4-dioxoimidazolidin-1-yl)-N-(1-(4-fluoro-3-phenoxyphenyl)ethyl)pentane-1-sulfonamide]",pIC50,5.90
same,% relative inhibition vs. positive control,60%
"C[C@@H](NS(=O)(=O)CCCCCN1CC(=O)NC1=O)c1ccc(F)c(OCC2CCOCC2)c1 [Example 100, (R)-5-(2,4-dioxoimidazolidin-1-yl)-N-(1-(4-fluoro-3-((tetrahydro-2H-pyran-4-yl)methoxy)phenyl)ethyl) pentane-1-sulfonamide]",pIC50,4.85
same,% relative inhibition vs. positive control,5%
"C[C@@H](NS(=O)(=O)CCCCCN1CC(=O)NC1=O)c1ccc(F)c(OCC(=O)O)c1 [Example 101, (R)-2-(5-(1-((5-(2,4-dioxoimidazolidin-1-yl)pentyl)sulfonamido)ethyl)-2-fluorophenoxy)acetic acid]",pIC50,4.70
same,% relative inhibition vs. positive control,4%
"C[C@@H](NS(=O)(=O)CCCCCN1CC(=O)NC1=O)c1ccc(F)c(OCc2nn[nH]n2)c1 [Example 102, (R)—N-(1-(3-((2H-tetrazol-5-yl)methoxy)-4-fluorophenyl)ethyl)-5-(2,4-dioxoimidazolidin-1-yl)pentane-1-sulfonamide]",pIC50,< 4.60
same,% relative inhibition vs. positive control,0%
"CC(C)C(NS(=O)(=O)CCCCCN1CC(=O)NC1=O)c1ccc(F)c(OCC2CC2)c1 (stereo not drawn) [Example 103, N-(1-(3-(cyclopropylmethoxy)-4-fluorophenyl)-2-methylpropyl)-5-(2,4-dioxoimidazolidin-1-yl)pentane-1-sulfonamide]",% relative inhibition vs. positive control,27%
"O=C1CN(CCCCCS(=O)(=O)NC(c2ccc(F)c(OCC3CC3)c2)C2CC2)C(=O)N1 (stereo not drawn) [Example 104, N-(cyclopropyl (3-(cyclopropylmethoxy)-4-fluorophenyl)methyl)-5-(2,4-dioxoimidazolidin-1-yl) pentane-1-sulfonamide]",% relative inhibition vs. positive control,57%
"O=C1CN(CCCCCS(=O)(=O)NC2CCc3c2ccc(F)c3OCC2CC2)C(=O)N1 (stereo not drawn) [Example 105, N-(4-(cyclopropylmethoxy)-5-fluoro-2,3-dihydro-1H-inden-1-yl)-5-(2,4-dioxoimidazolidin-1-yl) pentane-1-sulfonamide]",% relative inhibition vs. positive control,36%
"C[C@@H](NS(=O)(=O)CCn1ccc(N2CC(=O)NC2=O)n1)c1ccc(F)c(OCC2CC2)c1 [Example 106, (R)—N-(1-(3-(cyclopropylmethoxy)-4-fluorophenyl)ethyl)-2-(3-(2,4-dioxoimidazolidin-1-yl)-1H-pyrazol-1-yl)ethane-1-sulfonamide]",pIC50,3.82
same,% relative inhibition vs. positive control,1%
"C[C@@H](NS(=O)(=O)CC/C=C/CN1C(=O)NC(=O)C1(C)C)c1ccc(F)c(OCC2CC2)c1 [Example 112, (R,E)-N-(1-(3-(cyclopropylmethoxy)-4-fluorophenyl)ethyl)-5-(5,5-dimethyl-2,4-dioxoimidazolidin-1-yl)pent-3-ene-1-sulfonamide]",% relative inhibition vs. positive control,50%
"CC(C)COc1cc([C@@H](C)NS(=O)(=O)CCC=CCN2C(=O)NC(=O)C2(C)C)ccc1F [Example 113, (R)-5-(5,5-dimethyl-2,4-dioxoimidazolidin-1-yl)-N-(1-(4-fluoro-3-isobutoxyphenyl)ethyl)pent-3-ene-1-sulfonamide]",% relative inhibition vs. positive control,8%
"C[C@@H](NS(=O)(=O)CCOCCN1CC(=O)NC1=O)c1cccc(OCC2CC2)c1 [Example 114, (R)—N-(1-(3-(cyclopropylmethoxy)phenyl)ethyl)-2-(2-(2,4-dioxoimidazolidin-1-yl)ethoxy)ethane-1-sulfonamide]",% relative inhibition vs. positive control,124%

# From US10858344B2, “Hydantoin containing deoxyuridine triphosphatase inhibitors” (CV6 Therapeutics (NI) Limited, priority 2016, dated 2020)
